Measurements reported in US11191746B2, “Composition for inhibiting a growth of cancer stem cells comprising ciclesonide” (JEJU NATIONAL UNIVERSITY INDUSTRY-ACADEMIC COOPERATION …, priority 2016, dated 2021).

What was measured:
Type in all cases: cell-based, human
[1] = system: A549 cell-derived tumorspheres; experiment: Tumorsphere formation; details: A549 tumorspheres
Protocol: Human lung cancer cells, A549, were cultured under the same culture conditions as those for the breast cancer cells of Example 2-1. To establish primary tumorspheres, single cell-suspended A549 cells were inoculated into ultra-low attachment 6-well plates containing 2 ml of Cancer Stem Premium medium (ProMab Biotechnologies Inc, Richmond, Calif., USA) at a density of 5×10^4 cells/well. The cells were incubated in a 5% CO2 incubator at 37° C. for 10 days.
Lung cancer tumorspheres were counted in the same manner as in Example 3-1, and for the analysis of tumorsphere formation, tumorsphere formation efficiency (TFE, %) was determined by the following equation: TFE (%)=number of tumorspheres per well/total number of plated cells per well×100.

[2] = system: MCF-7 cell-derived mammospheres; experiment: Mammosphere formation; details: MCF-7 mammospheres, 80 μM
Protocol: (§1) Human breast cancer cells, MCF-7, were obtained from American Type Culture Collection (ATCC; Manassas, Va., USA). MCF-7 cells and MDA-MB-231 cells were cultured in Dulbecco's Modified Essential Medium (DMEM; Hyclone, Logan, Utah, USA) containing 10% fetal bovine serum (FBS; Hyclone), 100 U/ml of penicillin, and 100 μg/ml of streptomycin (Hyclone). The MCF-7 cells were maintained in a humidified incubator containing 5% CO2 at 37° C. The cells were plated in 10 cm culture dishes at a density of 1×10^6 cells. To establish primary mammospheres, single cell-suspended MCF-7 cells were inoculated into ultra-low attachment 6-well plates containing 2 ml of complete MammoCult™ medium (StemCell Technologies, Vancouver, BC, Canada) at a density of 3.5 to 4×10^4 cells/well. The complete MammoCult™ medium was supplemented with 4 μg/ml of heparin, 0.48 μg/ml of hydrocortisone, 100 U/ml of penicillin, and 100 μg/ml of streptomycin. The cells were incubated in a 5% CO2 incubator at 37° C. for 7 days.
(§2) On day 10 of culture, cell culture plates were placed on a scanner (Epson Perfection V700 PHOTO, Epson Korea, Co, Seoul, Korea) to obtain 8-bit gray scale images of mammospheres. The images were acquired using a NICE software program downloaded from ftp://ftp.nist.gov/pub/physics/mlclarke/NICE at a low resolution of 300 dpi. For counting, a desired number of rows and columns (e.g., 2×3 for a 6-well plate) were selected to generate ROIs and after selecting the elliptical setting of the NICE program, the individual ROIs were defined by adjusting the movement and size of the provided ROI shapes. The background signals of the images were negated using a threshold algorithm, and the selected images were automatically counted. To analyze the formation of mammospheres, mammosphere formation efficiency (MFE, %) was determined by the following equation: MFE (%)=the number of mammospheres per well/a total number of plated cells per well×100.

[3] = system: MDA-MB-231 cell-derived mammospheres; experiment: Mammosphere formation; details: MDA-MB-231 mammospheres, 80 μM
Protocol: as §1, §2

Molecule	lung cancer stem cell inhibitory activity ([1]; 5 μM and 10 μM)	growth of breast cancer stem cells [2]	growth of breast cancer stem cells [3]	lung cancer stem cell inhibitory activity ([1]; 80 μM)
isobutyryl ciclesonide	exhibited a lung cancer stem cell inhibitory activity			
C[C@]12C=CC(=O)C=C1CC[C@@H]1[C@@H]2C(=O)C[C@@]2(C)[C@H]1CC[C@]2(O)C(=O)CO [prednisone]		unable to inhibit	unable to inhibit	did not exhibit a lung cancer stem cell inhibitory activity
